Measured values reported in US10253052B2, “HBED-bisphosphonates, radiometal conjugates and their use as theranostic agents” (Five Eleven Pharma Inc., priority 2015, dated 2019).

Key:
[1] = In vivo biodistribution in mice; set-up: species or system normal CD-1 male mice; conditions: iv
How it was run: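 Normal male CD-1 mice (25-30 g) received 20-30 μCi of ^68Ga-labelled tracer or [^18F]NaF intravenously and were sacrificed at 2, 30, 60 and 120 min. Harvested organs, with tibia and femur as bone, were weighed and gamma-counted; uptake is expressed as % ID/g wet tissue.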

[2] = In vitro binding to hydroxyapatite; conditions: 20 mg hydroxyapatite in saline, 10 min at room temperature
How it was run: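 Hydroxyapatite was pre-incubated 24 h in isotonic saline, then ^68Ga-labelled compound (1 μCi) was added and incubated 10 min at room temperature. After centrifugation and two saline washes, gamma counting of supernatants and solid gave percent ^68Ga bound to hydroxyapatite.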

## O=C([O-])CN(CCN(CC(=O)[O-])Cc1cc(CCC(=O)N[C@@H](CCC(=O)O)C(=O)O)ccc1[O-])Cc1cc(CCC(=O)NC(P(=O)(O)O)P(=O)(O)O)ccc1[O-].[68Ga+3] [[^68Ga]1f]
[1]; 2 min
  bone to blood ratio: 1
  bone to muscle ratio: 4
[1]; 2 min post injection
  Biodistribution: Blood: 8.98 ± 0.68 % dose/g
  Biodistribution: Bone: 8.62 ± 0.23 % dose/g
  Biodistribution: Brain: 0.22 ± 0.00 % dose/g
  Biodistribution: Heart: 3.53 ± 0.57 % dose/g
  Biodistribution: Kidney: 24.7 ± 3.13 % dose/g
  Biodistribution: Liver: 2.43 ± 0.27 % dose/g
  Biodistribution: Lung: 5.01 ± 0.81 % dose/g
  Biodistribution: Muscle: 2.10 ± 0.12 % dose/g
  Biodistribution: Pancreas: 1.96 ± 0.15 % dose/g
  Biodistribution: Skin: 2.62 ± 0.11 % dose/g
  Biodistribution: Spleen: 2.20 ± 0.26 % dose/g
[1]; 30 min
  bone to blood ratio: 33
  bone to muscle ratio: 74
[1]; 30 min (0.5 hr) post injection
  Biodistribution: Blood: 0.52 ± 0.05 % dose/g
  Biodistribution: Bone: 16.8 ± 1.66 % dose/g
  Biodistribution: Brain: 0.02 ± 0.00 % dose/g
  Biodistribution: Heart: 0.23 ± 0.01 % dose/g
  Biodistribution: Kidney: 2.05 ± 0.52 % dose/g
  Biodistribution: Liver: 0.28 ± 0.02 % dose/g
  Biodistribution: Lung: 0.42 ± 0.03 % dose/g
  Biodistribution: Muscle: 0.23 ± 0.01 % dose/g
  Biodistribution: Pancreas: 0.15 ± 0.01 % dose/g
  Biodistribution: Skin: 0.49 ± 0.04 % dose/g
  Biodistribution: Spleen: 0.22 ± 0.03 % dose/g
[1]; 60 min
  bone to blood ratio: 78
  bone to muscle ratio: 222
[1]; 60 min (1 hr) post injection
  Biodistribution: Blood: 0.18 ± 0.04 % dose/g
  Biodistribution: Bone: 14.4 ± 3.01 % dose/g
  Biodistribution: Brain: 0.01 ± 0.00 % dose/g
  Biodistribution: Heart: 0.11 ± 0.01 % dose/g
  Biodistribution: Kidney: 1.59 ± 0.72 % dose/g
  Biodistribution: Liver: 0.20 ± 0.02 % dose/g
  Biodistribution: Lung: 0.21 ± 0.01 % dose/g
  Biodistribution: Muscle: 0.06 ± 0.00 % dose/g
  Biodistribution: Pancreas: 0.08 ± 0.02 % dose/g
  Biodistribution: Skin: 0.15 ± 0.01 % dose/g
  Biodistribution: Spleen: 0.12 ± 0.04 % dose/g
[1]; 120 min
  bone to blood ratio: 180
  bone to muscle ratio: 374
[1]; 120 min post injection
  Biodistribution: Blood: 0.09 ± 0.01 % dose/g
  Biodistribution: Bone: 16.7 ± 1.12 % dose/g
  Biodistribution: Brain: 0.01 ± 0.01 % dose/g
  Biodistribution: Heart: 0.07 ± 0.01 % dose/g
  Biodistribution: Kidney: 1.08 ± 0.20 % dose/g
  Biodistribution: Liver: 0.19 ± 0.01 % dose/g
  Biodistribution: Lung: 0.13 ± 0.01 % dose/g
  Biodistribution: Muscle: 0.04 ± 0.01 % dose/g
  Biodistribution: Pancreas: 0.04 ± 0.00 % dose/g
  Biodistribution: Skin: 0.09 ± 0.01 % dose/g
  Biodistribution: Spleen: 0.08 ± 0.01 % dose/g
[2]
  Hydroxyapatite Binding (%): 96.4 ± 1.2%

## O=C([O-])CN(CCN(CC(=O)[O-])Cc1cc(CCC(=O)NC(P(=O)(O)O)P(=O)(O)O)ccc1[O-])Cc1cc(CCC(=O)NCC(=O)O)ccc1[O-].[68Ga+3] [[^68Ga]1c]
[1]; 2 min
  bone to blood ratio: 0.7
  bone to muscle ratio: 5
[1]; 2 min post injection
  Biodistribution: Blood: 11.7 ± 0.55 % dose/g
  Biodistribution: Bone: 8.40 ± 1.32 % dose/g
  Biodistribution: Brain: 0.27 ± 0.06 % dose/g
  Biodistribution: Heart: 4.57 ± 0.45 % dose/g
  Biodistribution: Kidney: 27.7 ± 5.46 % dose/g
  Biodistribution: Liver: 4.78 ± 0.18 % dose/g
  Biodistribution: Lung: 5.66 ± 0.24 % dose/g
  Biodistribution: Muscle: 1.68 ± 0.11 % dose/g
  Biodistribution: Pancreas: 1.99 ± 0.23 % dose/g
  Biodistribution: Skin: 2.05 ± 0.16 % dose/g
  Biodistribution: Spleen: 3.41 ± 0.08 % dose/g
[1]; 30 min
  bone to blood ratio: 8
  bone to muscle ratio: 49
[1]; 30 min (0.5 hr) post injection
  Biodistribution: Blood: 1.34 ± 0.32 % dose/g
  Biodistribution: Bone: 11.3 ± 0.26 % dose/g
  Biodistribution: Brain: 0.05 ± 0.02 % dose/g
  Biodistribution: Heart: 0.49 ± 0.07 % dose/g
  Biodistribution: Kidney: 2.58 ± 0.05 % dose/g
  Biodistribution: Liver: 2.21 ± 0.27 % dose/g
  Biodistribution: Lung: 0.84 ± 0.11 % dose/g
  Biodistribution: Muscle: 0.23 ± 0.05 % dose/g
  Biodistribution: Pancreas: 0.39 ± 0.05 % dose/g
  Biodistribution: Skin: 0.53 ± 0.18 % dose/g
  Biodistribution: Spleen: 0.97 ± 0.01 % dose/g
[1]; 60 min
  bone to blood ratio: 23
  bone to muscle ratio: 102
[1]; 60 min (1 hr) post injection
  Biodistribution: Blood: 0.64 ± 0.17 % dose/g
  Biodistribution: Bone: 14.7 ± 0.66 % dose/g
  Biodistribution: Brain: 0.03 ± 0.01 % dose/g
  Biodistribution: Heart: 0.24 ± 0.08 % dose/g
  Biodistribution: Kidney: 1.88 ± 0.10 % dose/g
  Biodistribution: Liver: 1.85 ± 0.11 % dose/g
  Biodistribution: Lung: 0.42 ± 0.08 % dose/g
  Biodistribution: Muscle: 0.14 ± 0.01 % dose/g
  Biodistribution: Pancreas: 0.23 ± 0.02 % dose/g
  Biodistribution: Skin: 0.33 ± 0.03 % dose/g
  Biodistribution: Spleen: 0.74 ± 0.10 % dose/g
[1]; 120 min
  bone to blood ratio: 39
  bone to muscle ratio: 103
[1]; 120 min post injection
  Biodistribution: Blood: 0.41 ± 0.07 % dose/g
  Biodistribution: Bone: 16.1 ± 2.71 % dose/g
  Biodistribution: Brain: 0.02 ± 0.01 % dose/g
  Biodistribution: Heart: 0.19 ± 0.03 % dose/g
  Biodistribution: Kidney: 2.05 ± 0.27 % dose/g
  Biodistribution: Liver: 1.99 ± 0.09 % dose/g
  Biodistribution: Lung: 0.31 ± 0.06 % dose/g
  Biodistribution: Muscle: 0.16 ± 0.01 % dose/g
  Biodistribution: Pancreas: 0.20 ± 0.03 % dose/g
  Biodistribution: Skin: 0.31 ± 0.04 % dose/g
  Biodistribution: Spleen: 0.71 ± 0.29 % dose/g
[2]
  Hydroxyapatite Binding (%): 89.1 ± 1.0%
